Reference: patent publication US20220041627A1, “PRODRUGS OF ANTI-CANCER AND ANTI-AUTOIMMUNE DISEASES THERAPEUTIC AGENTS, AND METHODS OF MAKING AND USE THEREOF” (UNIVERSITY OF MARYLAND, BALTIMORE, priority 2018, published 2022)

What was measured:
breast cancer MCF7 cells = test: Cell viability (CCK8) in breast cancer MCF7 cells; type: cell-based, human; settings: different concentrations, compared with parent drug 5-FU
Procedure: FIGS. 2A and 2B illustrate the anticancer effects and selectivity of 5-FU and compounds 1a-1c. Cell viability was analyzed after the breast cancer MCF7 cells (FIG. 2A) and normal MEC1 cells (FIG. 2B) were treated with 5-FU or compounds 1a-1c at different concentrations. Data are presented as mean±SD, n=4.
Cell Counting Kit-8 (CCK8, Dojingo) was used to carry out the cytotoxicity assessment of the prodrugs. Seeded cells were treated with varying compound concentrations for 48-72 h and the CCK8 kit was used to measure the cytotoxicity. For NAC experiments, this ROS scavenger was pre-incubated with the cells for 2 h and then co-incubated with the prodrugs for additional 48 hours unless otherwise noted.
The anticancer effects of new compounds 1a and 1b were tested using the breast cancer MCF7 cells and normal MEC1 cells (FIGS. 2A and 2B). […] These differential killing results highlight the specificity of new prodrugs 1a-1b for cancer cells over normal cells. […] To further verify the role of ROS in the drug release process, the MTT assays was performed, using MCF7 cells pretreated with the ROS scavenger N-Acetyl-Cysteine (NAC).

[1] = biological target: dihydropyrimidine dehydrogenase (DPD) (Homo sapiens, UniProt Q12882); settings: injected 5-FU, degradation into 5-FUH2; cited from earlier work
Sequence of dihydropyrimidine dehydrogenase (DPD) (Q12882 4-1025): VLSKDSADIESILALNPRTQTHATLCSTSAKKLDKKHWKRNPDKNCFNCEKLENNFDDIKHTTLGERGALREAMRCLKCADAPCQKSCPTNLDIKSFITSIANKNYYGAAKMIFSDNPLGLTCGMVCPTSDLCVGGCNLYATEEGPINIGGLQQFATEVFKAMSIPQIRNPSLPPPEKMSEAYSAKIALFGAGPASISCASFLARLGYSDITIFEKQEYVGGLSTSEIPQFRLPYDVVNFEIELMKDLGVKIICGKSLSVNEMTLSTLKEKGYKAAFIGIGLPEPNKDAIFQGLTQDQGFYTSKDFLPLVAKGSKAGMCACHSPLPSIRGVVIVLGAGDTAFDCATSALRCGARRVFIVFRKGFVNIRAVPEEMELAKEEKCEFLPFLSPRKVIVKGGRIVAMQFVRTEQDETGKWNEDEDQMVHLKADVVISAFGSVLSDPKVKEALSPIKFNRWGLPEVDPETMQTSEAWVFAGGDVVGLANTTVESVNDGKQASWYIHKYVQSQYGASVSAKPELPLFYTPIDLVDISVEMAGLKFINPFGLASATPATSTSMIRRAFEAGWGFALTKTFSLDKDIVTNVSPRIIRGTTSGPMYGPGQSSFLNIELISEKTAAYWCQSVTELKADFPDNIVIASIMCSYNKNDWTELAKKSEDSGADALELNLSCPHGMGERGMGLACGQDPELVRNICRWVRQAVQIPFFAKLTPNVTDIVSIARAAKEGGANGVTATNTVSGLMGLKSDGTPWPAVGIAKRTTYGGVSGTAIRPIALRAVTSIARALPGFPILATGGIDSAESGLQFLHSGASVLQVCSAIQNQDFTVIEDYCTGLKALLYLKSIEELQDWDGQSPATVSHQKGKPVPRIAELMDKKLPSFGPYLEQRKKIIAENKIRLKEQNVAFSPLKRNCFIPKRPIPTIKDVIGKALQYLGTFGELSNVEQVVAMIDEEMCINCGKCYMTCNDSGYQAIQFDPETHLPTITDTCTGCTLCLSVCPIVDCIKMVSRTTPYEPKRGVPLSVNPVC

[2] = test system: wild-type C57BL/6 male mice; test: Acute toxicity in mice; type: in vivo; settings: 100 mg/kg i.p. every other day for 15 days, C57BL/6 male mice
Procedure: FIGS. 5A and 5B illustrate the survival rate (FIG. 5A) and body weight (FIG. 5B) curves of the various groups of mice. […] Mice were treated every other day by intraperitoneal (i.p.) injection for 15 days, the survival and body weights of the mice were recorded after treatment.
Mice were treated every other day by intraperitoneal (i.p.) injection for 15 days, the survival and body weights of the mice were recorded after treatment.

PARP1 = test: Western blot of PARP1 in MCF7 cells; type: cell-based, human; settings: 48 h
Procedure: (§1) FIGS. 4A and 4B illustrate the effect of compounds 1a-1b in apoptosis. FIG. 4A: immunofluorescence of DNA cleavage protein γH2Ax was enhanced by using 5-FU and prodrugs 1a-1b. FIG. 4B: immunoblot analysis of MCF-7 cells treated with 5-FU, prodrugs 1a-1b for apoptosis markers PARP1 and Caspase 3. The cells were treated for 48 h with the indicated concentrations of compounds.
(§2) Western Blot Analysis. Treated cells were washed once with PBS and lysed with RIPA lysis buffer (Santa Cruz Biotechnology, SCBT, #24948) supplemented with sodium orthovanadate, PMSF, protease and phosphatase inhibitor cocktails (Sigma Aldrich). Cell lysates were centrifuge for 15 min at 14,000×g and the supernatant was used for immunoblotting. Protein concentration was normalized for the samples and resolved on a 10-13% SDS-PAGE gel. Following transfer to nitrocellulose membrane, specific mouse primary antibodies from SCBT (PARP1 #sc-8007, caspase 3 #sc-7272) and Cell Signaling (cleaved PARP1 #9541, cleaved caspase-3 #9664) were added and incubated overnight. Secondary antibodies corresponding to the host of the primary antibodies was further incubated with the membrane and washed three times to remove excess antibodies. Odyssey Fc Imaging System (LI-COR, Lincoln, Nebr.) was used to quantify the chemiluminescent of the proteins.
(§3) To understand the mechanism of action of prodrugs 1a-1b, the impact of the treatment of compounds 1a-1b on the γH2AX formation in MCF7 cells were determined using immunofluorescence assay (FIG. 4A). […] The effects of prodrugs 1a-1b on the PARP1 and caspase 3 cleavage in MCF7 cells were also determined using Western blots assays (FIG. 4B). […] Treatment of 5-FU and compounds 1a-1b increased the levels of cleavage of PARP1 and caspase 3 in MCF7 cells, as compared with that in the vehicle-treated controls. Therefore, prodrugs 1a-1b, similar to 5-FU, can induce MCF7 cell apoptosis, which might contribute to their pharmacological actions.

γH2AX = γH2AX immunofluorescence assay in MCF7 cells; type: cell-based, human; settings: 48 h
Procedure: as §1
Immunohistochemistry Analysis. MCF7 cells were seeded on poly-D-lysine coated slides. Compounds were incubated with cells for 48 h. Following treatment, cells were washed once in PBS and fixed in 10% formalin for 20 min at room temperature. Methanol was used to permeabilize the cells for 10 min and PBS wash was carried out. Bovine serum albumin was used for 1 h blocking and primary antibodies for γH2AX (SCBT, #sc-517348) was incubated with the cells overnight. Fluorescent secondary antibodies were incubated with cells along with DAPI. Cells were washed trice with PBS and the slides were mounted prior to confocal imaging.
as §3

caspase 3 = test: Western blot of caspase 3 in MCF7 cells; type: cell-based, human; settings: 48 h
Procedure: as §1, §2, §3

[3] = test system: human colorectal cancer cells SW480; test: Anti-proliferative activity in SW480 cells; type: cell-based; settings: 10 μM, compared to parent drug 6MP
Procedure: FIG. 12 illustrates the anticancer effects and selectivity of 6MP (10 μM), prodrugs YA6131 (10 μM) and YA6075 (10 μM), evaluated in human colorectal cancer cells SW480 and normal HEK293 cells.
Anticancer effects and selectivity of 6MP (10 μM), prodrugs YA6131 (10 μM) and YA6075 (10 μM): the anticancer activities of prodrugs YA6131 and YA6075 were evaluated in comparison to the parent drug 6MP using the human colorectal cancer cells SW480 and normal HEK293 cells (FIG. 12). […] Without wishing to be bound by any particular theory, it was reasoned that the difference of the anticancer effects of the two prodrugs were due to their different release kinetics of the two compounds in the particular cells used.

[4] = compared to vehicle-treated cells
[5] = compared to vehicle-treated controls

With `O=c1[nH]c(=O)n(Cc2ccccc2)cc1F` [Compound 1c, 1-Benzyl-5-fluoropyrimidine-2,4(1H,3H)-dione] the “antiproliferative activity / anticancer effects” value (breast cancer MCF7 cells) was “no obvious antiproliferative effects”.

For `O=c1[nH]cc(F)c(=O)[nH]1` [Compound 5-FU, 5-fluorouracil, reference compound], the “share of injected doses deactivated by DPD” value [1] is given as “more than 85%”, the “survival / animal death” value [2] is given as “killed all mice on the twelfth day” and the “expression level of PARP1” value (PARP1; [4]) is given as “significantly reduced”. For the same compound, the “level of cleavage of PARP1” value (PARP1; [5]) was “increased”, the γH2AX formation (γH2AX) was “enhanced” and the “expression level of caspase 3” value (caspase 3; [4]) was “significantly reduced”. The “level of cleavage of caspase 3” value (caspase 3; [5]) was “increased”.

In the case of `CC1(C)OB(c2ccc(Cn3cnc4c(S)ncnc43)cc2)OC1(C)C` [YA6075, 9-(4-(4,4,5,5-Tetramethyl-1,3,2-dioxaborolan-2-yl)benzyl)-9H-purine-6-thiol], the anti-proliferative activity [3] is reported as “reduced effect”.

With `CC1(C)OB(c2ccc(CSc3ncnc4[nH]cnc34)cc2)OC1(C)C` [YA6131] the anti-proliferative activity [3] was “similarly potent anti-proliferative activity as compared to 6MP”.
